Patent US6846505B2, “Anti-oxidant” (Danisco A/S, priority 1999, dated 2005)

Columns and labels:
apple slices = test: Browning of apple slices (Example 1, FIG. 2); settings: prolonged period, weeks or months, at room temperature
Excerpt: Compounds of the present invention were investigated as an anti-browning agent in vegetable and fruit products.

[1] = system: mushroom polyphenol oxidase (PPO); test: Polyphenol oxidase (PPO) inhibition, tyrosine substrate, absorbance at 475 nm; format: biochemical; settings: for OD475 nm (browning product formation): 10 ppm APP, 24° C., pH 6.5
Experimental: Principle and Goal: PPO is one of the enzymes involved in oxidative browning of vegetables and fruits. […] Blank: To 20 μl PPO (20 units, from mushroom. Sigma product. EC 1.14.18.1) was added 0.45 ml water, 0.43 ml phosphate buffer (0.2M Na2HPO4—NaH2PO4, pH6.5), so the final volume was 0.9 ml Control: To 20 μl PPO was added 0.15 ml water, 0.43 ml phosphate buffer (0.2M Na2HPO4—NaH2PO4, pH6.5), then 0.3 ml tyrosine (1 mM, BDH product). Time course progress of the reaction was monitored at room temperature (24° C.) at 475 nm by using a Perkin Elmer UV/VIS Lambda 18 spectrophotometer. Test: To 20 μl PPO was added 0.143 ml water, 7 μl APP (final 10 ppm), 0.430 ml phosphate buffer (0.2M Na2HPO4—NaH2PO4, pH6.5), then 0.3 ml tyrosine (1 mM, BDH product). Time course progress of the reaction was monitored as above. Table 1. Inhibition of 10 ppm APP on polyphenol oxidase (PPO) as indicated by very slow increase at absorbance 475nm compared to control. Higher values at OD475 nm indicate more browning product formation.

[2] = LPO method: MDA and 4HNE from oxidation of linoleic acid (OD586 nm); settings: for OD586 nm of the APP test / OD586 nm of the ascorbate test: 24° C. in the dark for 10 days
Excerpt: (§1) The following five methods were used to evaluate compounds in accordance with the present invention. […] Note: both MDA and 4-HNE are the oxidation products of polyunsaturated fatty acids from lipids. • 3. β-carotene method was used to measure the protection of β-carotene oxidation by lipid peroxide in the presence of an added anti-oxidant. • 4. DPPH (1,1-diphenyl-2-picrylhydrazyl) method was used to measure the radical scavenging activity of an anti-oxidant towards the radical DPPH. • 5. polyphenol oxidase (PPO) method was used to measure the inhibition of polyphenol oxidase in vegetables, fruits and mushrooms.
Principle and Goal: A major area for use of antioxidants in food-related products are their ability to prevent the oxidation of polyunsaturated fatty acids in lipids. The oxidation of lipids and fatty acids is a major problem in food.
Assay Conditions: The assay of MDA and 4HNE was performed by the LPO method, using the assay kit from OXIS International, Inc. (Portland, Oreg., USA) and according to their protocol. The assay mixture for the blank contained linoleic acid and Tween 40. For the tests, APP or sodium ascorbate was added. After incubation at 24° C. in the dark for 10 days, the samples were assayed for MDA and 4HNE contents as indicated by their absorbance at 586 nm as given in Table 3. Higher OD586 nm values indicate higher content of MDA and 4HNE, and therefore more degradation of linoleic acid.

[3] = β-carotene method: de-coloration of beta-carotene by oxygen and oxidative intermediates of linoleic acid (OD470 nm)
Excerpt: as §1
Principle and Goal: Carotenes are one of the pigments which may be used to give a healthy colour to food or drinks. They are therefore used as food colorant. β-Carotene is also the precursor for vitamin A. Carotenoid molecules are highly unsaturated and are prone to oxidative degradation; which is stimulated by light, enzymes, metals, and co-oxidation with lipid hydroperoxides.
In the system used, beta-carotene was exposed to oxygen and the oxidative intermediates of linoleic acid.
The assay was performed according to H. E. Miller (JAOSC (1970) 48: 91). The assay system consisted of beta-carotene, linoleic acid, and Tween 40. In the blank, no anti-oxidant was added, while in the tests, either APP in a concentration of 2.5-25 ppm or sodium ascorbate in a concentration of 100-500 ppm was added. The mixtures were incubated in the dark for the time and temperature indicated (see Table 2.1 and 2.2). The absorbance was then measured at 470 nm. The absorbance provided an indication of beta-carotene content. Lower OD470 nm values indicate more degradation of beta-carotene.

[4] = disclosed tests of reference [3]; cited from earlier work

O=c1cc(CO)occ1O [kojic acid]
Prevention of browning of apple slices (apple slices): completely prevent browning
Inhibition of PPO (in words) [1]: inhibited

O=C1O[C@H]([C@@H](O)CO)C(O)=C1O [ascorbic acid, reference compound]
Prevention of browning of apple slices (apple slices): unable to do so

O=C1C(O)=COC(CO)C1O [APP, 1,5-Anhydro-D-glycero-hex-1-en-3-ulose]
Effect on oxidation of linoleic acid (in words) [2]: able to delay the oxidation of linoleic acid
OD586 nm of the APP test ([2]; 2.5 ppm, higher OD = more MDA and 4HNE): 0.358
Efficiency in delaying the oxidative degradation of linoleic acid compared with ascorbic acid ([2]; 6.2 ppm APP, FIG. 5): almost as efficient as 300 ppm ascorbic acid
OD586 nm of the APP test ([2]; 6.2 ppm): 0.100
OD586 nm of the APP test ([2]; 12.5 ppm): 0.084
Effect on oxidative de-coloration of beta-carotene (in words) [3]: delayed the oxidative de-coloration of beta-carotene
The OD470 nm of the APP test ([3]; 2.5 ppm, 37° C. for 161 min in the dark, lower OD = more degradation): 0.264
The OD470 nm of the APP tests ([3]; 2.5 ppm, 37° C. for 161 min then 24° C. for 17.5 hours in the dark): 0.173
The OD470 nm of the APP test ([3]; 6.2 ppm, 37° C. for 161 min in the dark): 0.314
The OD470 nm of the APP tests ([3]; 6.2 ppm, 37° C. for 161 min then 24° C. for 17.5 hours in the dark): 0.270
The OD470 nm of the APP test ([3]; 12.5 ppm, 37° C. for 161 min in the dark): 0.322
The OD470 nm of the APP tests ([3]; 12.5 ppm, 37° C. for 161 min then 24° C. for 17.5 hours in the dark): 0.274
The OD470 nm of the APP test ([3]; 25 ppm, 37° C. for 161 min in the dark): 0.326
The OD470 nm of the APP tests ([3]; 25 ppm, 37° C. for 161 min then 24° C. for 17.5 hours in the dark): 0.263
Effectiveness relative to ascorbic acid in preventing the de-coloration of β-carotene ([3]; FIG. 4): around 100 times
Function as an antibiotic [4]: did not function satisfactorily as an antibiotic
Inhibition of PPO (in words) [1]: efficient inhibitor
OD475 nm (browning product formation) ([1]; reaction time 0 min): 0
OD475 nm (browning product formation) ([1]; reaction time 1 min): 0
OD475 nm (browning product formation) ([1]; reaction time 3 min): 0
OD475 nm (browning product formation) ([1]; reaction time 5 min): 0
OD475 nm (browning product formation) ([1]; reaction time 7 min): 0.0005
OD475 nm (browning product formation) ([1]; reaction time 9 min): 0.0017
OD475 nm (browning product formation) ([1]; reaction time 11 min): 0.0033
OD475 nm (browning product formation) ([1]; reaction time 13 min): 0.0056
OD475 nm (browning product formation) ([1]; reaction time 15 min): 0.0082
OD475 nm (browning product formation) ([1]; reaction time 17 min): 0.0122
OD475 nm (browning product formation) ([1]; reaction time 19 min): 0.0178
OD475 nm (browning product formation) ([1]; reaction time 20 min): 0.0209

O=C1O[C@H]([C@@H](O)CO)C([O-])=C1O.[Na+] [Sodium ascorbate, sodium ascorbate, reference compound]
OD586 nm of the ascorbate test ([2]; 100 ppm): 0.279
OD586 nm of the ascorbate test ([2]; 300 ppm): 0.097
OD586 nm of the ascorbate test ([2]; 500 ppm): 0.032
The OD470 nm of the ascorbate test ([3]; 100 ppm, 37° C. for 161 min in the dark): −0.01
The OD470 nm of the ascorbate test ([3]; 100 ppm, 37° C. for 161 min then 24° C. for 17.5 hours in the dark): −0.006
The OD470 nm of the ascorbate test ([3]; 300 ppm, 37° C. for 161 min in the dark): 0.096
The OD470 nm of the ascorbate test ([3]; 300 ppm, 37° C. for 161 min then 24° C. for 17.5 hours in the dark): 0.102
The OD470 nm of the ascorbate test ([3]; 500 ppm, 37° C. for 161 min in the dark): 0.191
The OD470 nm of the ascorbate test ([3]; 500 ppm, 37° C. for 161 min then 24° C. for 17.5 hours in the dark): 0.200
